In patent US20160030472A1, “XENON-BASED ANESTHETIC GAS COMPOSITION USABLE DURING AN ENDARTERECTOMY INVOLVING THE CLAMPING OF THE CAROTID ARTERY” (Air Liquide Santé (International), priority 2013, published 2016):

System: patients scheduled for carotid surgery
Assay: Randomized study of xenon versus sevoflurane for maintaining general anesthesia during carotid endarterectomy with clamping of the internal carotid artery
Assay type: in vivo, human being
Settings: for average radial-carotid pressure gradient (PG) between systemic SAP and arterial pressure in the clamped carotid artery: during clamping of the internal carotid artery, group X (xenon 60%±5%, at least 30% oxygen) compared with group S (sevoflurane), 12 patients per group
Description: The study was carried out in 24 patients scheduled for carotid surgery, comprising men and women. The choice of treatment of the patients is made randomly (randomization): • either using a routine anesthetic agent, namely sevoflurane: group S of 12 patients, • or by inhalation of xenon at 60%±5% in a mixture with at least 30% of oxygen: group X of 12 patients (% by volume). Anesthesia was induced identically in the 2 groups using intravenous products, namely propofol (target 1.5 μg/ml) and a morphine compound, remifentanil (target 4 ng/ml), double TCI (Target Controlled Infusion). The main assessment criterion is the pressure gradient (PG) between the systolic arterial pressure (SAP) measured at the level of a radial arterial catheter contralateral to the surgery and the arterial pressure in the clamped carotid artery. This pressure is obtained by means of a Fogarty catheter, which also enables clamping of the internal carotid artery by inflation of the balloon, connected to a pressure sensor. The continuous recording and the calculation of the PG are carried out live by a BiopAC system. This method makes it possible to obtain a measurement of the PG throughout the entire duration of the clamping of the internal carotid artery. The statistical analyses are carried out with R Project for Statistician Computing (www.r-project.org).

Compound	consumption of vasopressor products for maintaining the systemic arterial pressure (group S compared with group X, p<0.001)	average radial-carotid pressure gradient (PG) between systemic SAP and arterial pressure in the clamped carotid artery (p<0.001)	average radial-carotid pressure gradient (PG) between systemic SAP and arterial pressure in the clamped carotid artery (p<0.001, listed as group X)	hemodynamic parameters during maintenance of anesthesia (maintenance of anesthesia with xenon)	systemic systolic arterial pressure values (maintenance of anesthesia with xenon, compared with the usual inhaled or intravenous (IV) anesthetic agents)
FCOC(C(F)(F)F)C(F)(F)F [sevoflurane, reference compound]	significantly higher				
[Xe] [xenon]		reduce the pressure gradient (PG)	significantly lower	stable	higher
